The values below come from ChEMBL document CHEMBL1136107, “Improvement of therapeutic index of phosphodiesterase type IV inhibitors as anti-Asthmatics” (Bioorg Med Chem Lett, 2003).

The structures appear in SMILES notation. Calls of active or inactive are those of the source.

In experiment [1] the test system is Cavia porcellus. The experiment in a line: Inhibition of bronchoconstriction in passively-sensitized guinea pig at 1 mg/kg iv dose 10 min prior to challenge. It counts as functional. Particulars: Lung.
In experiment [2] the test system is Cavia porcellus. The experiment in a line: Eosinophil infiltration in passively-sensitized guinea pig at 30 mg/kg peroral dose 90 min prior to challenge. It counts as functional. Particulars: route oral.
Another experiment has as its system Mustela putorius furo. The experiment in a line: Emetic effect in ferrets after peroral administration at 0.03 mg/kg (2/5). Details: dose 0.03 mg/kg. It is filed as functional, organism-based.

As to `COc1ccc(/C=N/NC(N)=O)cc1OC1CCCC1`, the inhibition in vivo at 1 mg/kg with Cavia porcellus [1] amounted to 90.3%. In addition, in the experiment with Cavia porcellus [2], the inhibition in vivo at 30 mg/kg stood at 63%.

Regarding `COc1ccc(C2CNC(=O)C2)cc1OC1CCCC1` (stereo not given) [ROLIPRAM], the Emesis entry in the experiment with Mustela putorius furo is “Partially active”. Also, the inhibition in vivo at 1 mg/kg in the experiment on Cavia porcellus [1] was found to be 95.4%. For the same compound, the inhibition in vivo at 30 mg/kg in the experiment with Cavia porcellus [2] amounted to 62%.
